Where “and” joins values, the source holds several entries; their conditions need not be identical. Equal values may be shown once.
How the values were obtained:
Format in all cases: in vivo
[1] = test system: Helicoverpa armigera; assay: Leaf dip method (tomato leaves) with Bacillus thuringiensis against Helicoverpa armigera (Example D); conditions: single, 0.1 ppm, 72 h
Experimental: (§1) The leaf dip method was used, wherein the required quantity of the compounds were weighed and dissolved in a test solution prepared in tubes. The tubes were put on a vortex at 2000 rpm for 90 min for proper mixing and then, for the single compounds, diluted with a 0.01% Triton-X solution, for the combinations, diluted with a 0.01% Triton-X solution containing formulated Bt, to get the desired test concentrations. Tomato leaves were dipped in the solution for 10 seconds, shade dried for 20 min and then transferred to single cells of the bioassay trays. A single third instar larva was released into each cell and the tray was covered with a lid. The bio-assay trays were kept under laboratory conditions at a temperature of 25° C. and relative humidity of 70%. Observations on dead, moribund and live larvae were recorded at 72 h after the release. Percent mortality was calculated by combining dead and moribund larvae and comparing the result to the one of the untreated control. The results have been described for compound of formula (I-III) in Table D.

[2] = test system: Spodoptera litura; assay: Leaf dip method (tomato leaves) with Bacillus thuringiensis against Spodoptera litura (Example E); conditions: single, 0.1 ppm, 72 h
Experimental: as §1, with “test concentration.” for “test concentrations.”, “the results” for “the result”, “Table E.” for “Table D.”

[3] = test system: Pyricularia oryzae; conditions: single compound, 100 ppm, preventive, rice
[4] = test system: Erysiphe cichoracearum; assay: Preventive glasshouse test against Erysiphe cichoracearum in cucumber (Example K); conditions: single compound
Experimental: The single compounds or the respective compound combinations were dissolved in 2% dimethyl sulfoxide/acetone and then mixed with water containing emulsifier to a calibrated spray volume of 50 mL. The test solutions were poured into spray bottles for further applications.
To test the preventive activity of compounds, healthy young cucumber plants, raised in the greenhouse, were sprayed with the active compound preparation at the stated application rates inside the spray cabinets using hollow cone nozzles. One day after treatment, the plants were inoculated with a conidial suspension containing 2×10^5 Erysiphe cichoracearum inoculum. The inoculated plants were then kept in a greenhouse chamber at a temperature of 22-24° C. and 50-60% relative humidity for disease expression.
A visual assessment of the performance of the compounds and the respective compound combinations was carried out by rating the disease severity (0-100% scale) on treated plants 3, 7, 10 and 15 days after application. Efficacy (% control) of the single compounds or compound combinations was calculated by comparing the disease rating in the treatment with the one of the untreated control. The compounds were also assessed for their plant compatibility by recording symptoms like necrosis, chlorosis and stunting. The results have been described for the compound of formula (I-III) in Table K.

## 6-(3-bromo-1-(3-chloropyridin-2-yl)-1H-pyrazole-5-carboxamido)-N-isopropyl-5-methylpyrazolo[1,5-a]pyridine-7-carboxamide [Compound (I-III)]
[1]
  Observed Efficacy (%): 12.5%
[2]
  Observed Efficacy (%): 0%
[3]
  Observed Efficacy (%): 15%
[4]; Conc. 100 ppm
  Observed Efficacy (%): 17%
[4]; Conc. 500 ppm
  Observed Efficacy (%): 17% and 19% and 28%
